Experimental data taken from paper PMC3368886, “ATPase Cycle and DNA Unwinding Kinetics of RecG Helicase” (PLoS ONE, 2012).

What was measured:
RecG⋅DNA(A40:B40) [1] = biological target: T1, RecG⋅DNA(A40:B40) (Thermotoga maritima, UniProt Q9WY48); test: Stopped-flow mant fluorescence: mant nucleotide binding to RecG⋅DNA, pseudo-first-order; settings: 20°C
T1 construct: made in house
T1 sequence (Q9WY48 1-780): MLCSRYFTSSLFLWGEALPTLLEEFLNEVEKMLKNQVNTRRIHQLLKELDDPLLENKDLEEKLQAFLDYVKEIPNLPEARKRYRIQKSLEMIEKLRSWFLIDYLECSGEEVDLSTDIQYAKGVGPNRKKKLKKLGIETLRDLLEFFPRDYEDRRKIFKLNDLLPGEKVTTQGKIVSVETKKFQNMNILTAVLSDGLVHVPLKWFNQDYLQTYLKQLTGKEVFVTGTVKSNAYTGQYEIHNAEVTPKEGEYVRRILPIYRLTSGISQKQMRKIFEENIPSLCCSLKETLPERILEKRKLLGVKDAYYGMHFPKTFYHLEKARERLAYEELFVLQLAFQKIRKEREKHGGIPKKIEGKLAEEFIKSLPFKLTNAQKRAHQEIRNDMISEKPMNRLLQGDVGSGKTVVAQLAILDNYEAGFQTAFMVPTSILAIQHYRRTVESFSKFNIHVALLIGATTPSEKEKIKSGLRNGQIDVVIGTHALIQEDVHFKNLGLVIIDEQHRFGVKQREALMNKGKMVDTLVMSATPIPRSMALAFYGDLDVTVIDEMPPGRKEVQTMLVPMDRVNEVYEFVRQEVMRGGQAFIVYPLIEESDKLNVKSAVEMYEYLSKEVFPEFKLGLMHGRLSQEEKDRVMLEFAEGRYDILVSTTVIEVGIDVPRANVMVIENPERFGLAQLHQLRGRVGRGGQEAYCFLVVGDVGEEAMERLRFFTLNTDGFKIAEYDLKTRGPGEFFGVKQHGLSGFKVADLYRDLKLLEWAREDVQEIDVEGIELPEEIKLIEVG
Method: MantATP binding to RecG⋅DNA(A40:B40) was measured under pseudo-first-order conditions, that is mantATP in large excess over the protein. Using the stopped-flow apparatus, several concentrations of mantATP were rapidly mixed with RecG⋅DNA and fluorescence followed with time. Each trace was fitted by a single exponential (Figure 3A) and the concentration dependence of the observed rate constants were fit well by a hyperbola (Figure 3B). […] As mantATP is also hydrolyzed, the rate of the forward reaction needs to be included, in this case limited by the cleavage step 2, as described later. The fit gives 1/K 1a as 24 (±4) µM, k +1b + k −1b + k +2 as 26.1 (±1.8) s^−1 and the intercept gives k −1b + k +2 as <1 s^−1. Given that k +2 is 0.2 s^–1 (see below), k −1b is <0.8 s^−1. Potentially, an alternative explanation for such a hyperbolic relationship could be preferential binding of either the 2′- or 3′-isomer of mantATP and then isomerization of the non-favored isomer. However, the observed rates in these measurements were several orders of magnitude faster than the likely isomerization rate. In order to assess whether the two isomers of mantATP and their interconversion are factors in any fluorescence traces for mantATP, an equivalent measurement was made using 3′-mant-2′-deoxyATP.
Figure 3 MantATP binding to RecG⋅DNA. MantATP at the micromolar concentrations shown was mixed in the stopped flow apparatus with 0.5 µM RecG and 2.5 µM DNA Junction (A40:B40) at 20°C in the buffer described in materials and methods. Individual traces (offset from each other) were fitted to single exponentials and the dependence of the rate constants on concentration was then fitted by a hyperbola. The points shown are averages of at least 3 measurements. The fit gives 1/K 1a as 24 (±4) µM and k +1b + k− 1b + k +2 as 26.1 (±1.8) s^−1 and the intercept was <1 s^–1 (Scheme in Figure 2B).
MantADP binding to RecG⋅DNA complex was measured under pseudo-first order conditions by stopped-flow fluorescence.
Figure 5 MantADP binding kinetics to RecG⋅DNA. MantADP at various concentrations was mixed in the stopped flow apparatus with 0.5 µM RecG and 2.5 µM DNA (A40:B40) under the conditions of Figure 4. Traces (not shown) were fitted by single exponentials. The rate constants are shown as a function of concentration and the best linear fit, gives a slope of 1.1 (±0.4) µM^−1s^−1 and an intercept of <1 s^−1.
Stopped-flow experiments were performed in a HiTech SF61DX2 apparatus (TgK Scientific Ltd, Bradford-on-Avon, UK) with a mercury-xenon light source and HiTech KinetAsyst 3 or Kinetic Studio 1 software. For MDCC-PBP fluorescence, the excitation wavelength used was 436 nm and a 455 nm cut-off filter (Schott glass) used to collect emitted light. The signal was calibrated using known concentrations of Pi. The solutions contained the Pi mop, to minimize phosphate contamination and comprising 0.01 unit ml^−1 bacterial purine nucleoside phosphorylase and 200 µM 7-methylguanosine. For mant fluorescence, 366 nm was used to excite and a 400 nm cut-off filter (Schott glass) used to collect light. Measurements of Cy3 fluorescence used 547 nm excitation and a 570 nm cut-off filter. In experiments described, the quoted concentrations are those in the mixing chamber, except where stated. Data were fitted to theoretical curves using the HiTech software or Grafit.

RecG⋅DNA(A40:B40) [2] = biological target: T1, RecG⋅DNA(A40:B40); test: Kinetic model simulation of single turnover of mantATP; type: biochemical
Method: In order to test the data obtained with mantATP for consistency, a simple kinetic model for the ATPase mechanism was used to simulate the data in Figure 4A. The model was based on the scheme in Figure 2A, but included a two-step triphosphate binding as in Figure 2B. The model assumed that Pi release is irreversible and mantADP remains bound under these conditions as its K d (<50 nM) is much less than the experimental concentrations. The difference in fluorescence intensity between protein-bound mantATP and mantADP was included in the modeling with bound mantATP representing 20% of the overall increase, as shown experimentally. The best-fit simulation is shown in Figure 4B, which gave mantATP binding at 5.7 s^−1, followed by a rapid step (“conformation change”) of 30 s^−1, hydrolysis at 0.25 s^−1 and Pi release is fast (>10 s^−1). […] There is a discrepancy with the fit to the data at long times, as the experimental traces are slightly biphasic, which could be due to a small proportion of the protein having modified activity due to damage, for example.
Data were fitted to theoretical equations using the stopped-flow software or Grafit. Kinetic simulations were performed using Berkeley Madonna (Version 8.3, University of California at Berkeley) and using Global Kinetic Explorer (Kintek). Global fits were performed using Global Kinetic Explorer.

## CNc1ccccc1C(=O)O[C@H]1[C@@H](O)[C@H](n2cnc3c(N)ncnc32)O[C@@H]1COP(=O)(O)OP(=O)(O)OP(=O)(O)O [mantATP, 2′(3′)-O-(N-methylanthraniloyl)ATP]
RecG⋅DNA(A40:B40) [1]
  k +1b: 25.1 s⁻¹
  k −1b: <0.8 s⁻¹
RecG⋅DNA(A40:B40) [1]; linear fit
  k −4 (mantADP second order binding rate constant, slope): 1.1e+06 M⁻¹ s⁻¹
RecG⋅DNA(A40:B40) [1]; hyperbolic fit
  intercept, k −1b + k +2: < 1 s⁻¹
  k +1b + k −1b + k +2: 26.1 (±1.8) s^−1
RecG⋅DNA(A40:B40) [2]
  Pi release (best-fit simulation): > 10 s⁻¹
  hydrolysis (best-fit simulation): 0.25 s⁻¹
  mantATP binding (best-fit simulation): 5.7 s⁻¹
  rapid step (conformation change) (best-fit simulation): 30 s⁻¹
